According to patent US4405717A, “Recovery of acetic acid from a fermentation broth” (priority 1981, dated 1983):
Read-outs that look alike come from different tables or passages of the source.

How the values were obtained:
[1] = for dissolution of the amine: aqueous calcium acetate solution, carbon dioxide added
Protocol: In carrying out the process of this invention, a molar equivalent of a water-soluble tertiary amine carbonate is added to the calcium acetate solution. The tertiary amine carbonate used in the process can be generated by the addition of carbon dioxide to a solution or suspension of the tertiary amine in water. It is most convenient to generate the tertiary amine carbonate in situ by first adding a molar equivalent of the tertiary amine to the calcium acetate solution. Then carbon dioxide is added to the mixture to generate the tertiary amine carbonate directly in the calcium acetate solution. The addition of the carbon dioxide is carried out by any convenient means. Either solid or gaseous carbon dioxide is added to the solution at atmospheric pressure or at higher pressures in a pressure vessel.
To a solution of 20 g of acetic acid and 400 ml of water was added 16 g of calcium carbonate. […] To this was added 62 g of tributylamine.

[2] = Thermal decomposition (dissociation) of trialkylammonium acetates; format: physicochemical
Protocol: In the final step of the process, the trialkylammonium acetate is heated to cause dissociation of the acetate with liberation of acetic acid and the amine. The temperature at which the acetate decomposes depends somewhat on the tertiary amine used. When tributylamine is employed, the acetate decomposes when held in a bath in the range of about 170°-190° C. with distillation of the acetic acid in a relatively pure form. The residue after distillation of the acid is tributylamine which can be recycled for use in the extraction process.
The syrup obtained in Example 1 was placed in a flask fitted with a 7-cm Vigreux column attached to a water-cooled condenser. The flask was heated in an oil bath to 180° C. at which temperature decomposition of the acetate occurred. The yield of acetic acid distilling at 115°-118° C. was 18.3 g which represents a 91.5% recovery of the acetic acid present in the solution.
When the process of Example 2 was repeated with the syrups containing trimethylammonium acetate, triethylammonium acetate and tripropylammonium acetate, the products that were obtained were either azeotropes or mixtures of the tertiary amine and acetic acid.

[3] = Extraction of trialkylammonium acetates: distribution coefficient (KD) between water and solvents; format: physicochemical; conditions: conclusion from Table I
Protocol: In one embodiment of this invention, the trialkylammonium acetate is extracted from the solution by means of an organic solvent. Polar solvents, such as esters, alcohols, ketones, ethers or chlorinated hydrocarbons can be used. The solvents should be insoluble or sparingly soluble in water and be good extractants for the acetate. This extraction ability is determined by measuring the amount of acetic acid in each phase when an acetate solution is extracted with an equal volume of extractant. The extraction ability is expressed as a Distribution Coefficient (KD) which is defined by the formula: [formula] The solvent should have a KD greater than about 0.4 and preferably greater than about 1.
The efficiency with which trialkylammonium acetates could be extracted from water solutions with various solvents was measured by determination of the KD of the salts between water and the solvents according to the following procedure:
A mixture of 50 ml of a 5% aqueous solution of the acetate formed by the procedure of Example 1 and 50 ml of solvent in a 250-ml Erlenmeyer flask was shaken in a wrist-action shaker for 2 hours at room temperature. The mixture was transferred to a separatory funnel where it was allowed to stand for an additional hour before the phases were separated, weighed and analyzed. […]

CC(C)CCCCCN(CCCCCC(C)C)CCCCCC(C)C [triisooctylamine]
dissolution of the amine [1]: the amine did not dissolve

CCCCN(CCCC)CCCC [tributylamine]
dissolution of the amine ([1]; listed as Tributylamine): dissolves readily

CC(=O)O.CCCCN(CCCC)CCCC [Tributylammonium Acetate, tributylammonium acetate]
decomposition temperature of the acetate ([2]; heated in an oil bath, Example 2): 180 °C | extraction from water with the solvents (in words) [3]: much more efficient than any of the other combinations

CCCCCN(CCCCC)CCCCC [triamylamine]
dissolution of the amine [1]: the amine did not dissolve

CCCCCCN(CCCCCC)CCCCCC [trihexylamine]
water solubility of the amine carbonate [1]: do not form carbonates which are sufficiently soluble in water | dissolution of the amine [1]: the amine did not dissolve

CCCCCCCCN(CCCCCCCC)CCCCCCCC [trioctylamine]
water solubility of the amine carbonate [1]: do not form carbonates which are sufficiently soluble in water

CCCCCCCCCCCCN(C)C [dimethyldodecylamine, N,N-dimethyldodecylamine]
behaviour of the salt on distillation ([2]; salts prepared from long-chain amines): distillation was accompanied by unknown side-reactions

CCCN(CCC)CCC [tripropylamine]
water solubility of the amine carbonate [1]: form carbonates which are water soluble | dissolution of the amine [1]: all of the amine went into solution

CN(C1CCCCC1)C1CCCCC1 [dicyclohexylmethylamine]
dissolution of the amine [1]: all of the amine went into solution

CN(C)C [trimethylamine]
water solubility of the amine carbonate ([1]; general statement): form carbonates which are water soluble

CN(C)c1ccncc1 [4-dimethylaminopyridine]
dissolution of the amine [1]: all of the amine went into solution
